The text below walks through data of US20150164874A1, “PIRFENIDONE AND ANTI-FIBROTIC THERAPY IN SELECTED PATIENTS” (INTERMUNE, INC., priority 2011, published 2015).

The test system of assay [1] is IPF patients with mild to moderate impairment in lung function. Description: Phase 3 trials Study 1 and Study 2 of pirfenidone vs placebo in IPF patients, retrospective re-analysis (ITT vs novel selection criteria). The format is in vivo, human. Conditions: for 6MWT change from baseline, Relative Δ / % DLco change from baseline, Relative Δ / % FVC ≧10% decline, Relative Δ / Progression-free survival, time to event HR / SpO2 During 6MWT change from baseline, Relative Δ / Survival, time to event HR / UCSD SOBQ (dyspnea) change from baseline, Relative Δ / Worsening IPF, time to event HR: Study 1 and Study 2 pooled, pirfenidone vs placebo; for Interaction with Treatment: Group with Greater Pirfenidone Effect: multivariate model of FVC decline at 72 weeks. The source says:
Two multinational, randomized, double-blind, placebo-controlled Phase 3 trials, referred to herein as Study 1 and Study 2, were designed and performed to evaluate the safety and efficacy of pirfenidone in IPF patients with mild to moderate impairment in lung function. Both trials enrolled patients in North America, Europe and Australia with roughly 75% of the total 779 patients enrolled in North America.
Study 1 enrolled a total of 344 patients. Patients were randomized 1:1 to receive a total daily dose of 2403 mg pirfenidone, or placebo. Study 2 enrolled a total of 435 patients, and patients were randomized 2:2:1 to receive a total daily dose of 2403 mg pirfenidone, or placebo, or a total daily dose of 1197 mg pirfenidone, respectively. The total daily dose of pirfenidone was administered in three divided doses, three times per day.
If the surgical lung biopsy or HRCT scans were ambiguous, the slides or HRCT images were evaluated by an adjudicator for a second opinion.
Exclusion criteria included: FEV1/FVC<0.7 after bronchodilator administration, bronchodilator response, RV>120%, history of significant environmental exposure known to cause pulmonary fibrosis, and diagnosis of connective tissue disease or other known explanation of interstitial lung disease (ILD).
Enrollment of both trials was completed in less than 13 months following randomization of the first patient into the program in late April 2006. Ninety-seven percent (97%) of all patients in the two studies who were living and had not received a lung transplant, completed their Week 72 study visit.
The primary endpoint of both trials was change in percent predicted Forced Vital Capacity (FVC) after 72 weeks of treatment evaluated with a nonparametric rank ANCOVA analysis. The pre-specified secondary endpoints monitored during the studies included: (a) Time to worsening of IPF, defined as time to acute IPF exacerbation, IPF-related death, lung transplant or respiratory hospitalization, whichever comes first; (b) Progression-free survival defined as time to the first occurrence of either of the following (as compared to the patient's baseline): (1) 10% absolute decline in percent predicted FVC, or (2) 15% absolute decline in percent predicted Hb-corrected DL(CO), or (3) death (in the case of FVC or DL(CO), the decline must be confirmed at two consecutive visits at least 6 weeks apart); (c) Categorical assessment of absolute change from Baseline to Week 72 in percent predicted FVC; (d) Change from Baseline to Week 72 in dyspnea measured by the University of California at San Diego Shortness-of-Breath Questionnaire (UCSD SOBQ); (e) Change from Baseline to Week 72 in the percent predicted Hb-corrected DL(CO); (f) Change from Baseline to Week 72 in the worst oxygen saturation by pulse oximetry (SpO2) measurement observed during the Six-Minute Walk Test; (g) Change from Baseline to Week 72 in distance walked in the Six-Minute Walk Test (6MWT).
After the studies were completed, a retrospective multivariate model of data identified predictors of greater FVC decline at 72 weeks and variables that have a statistical interaction with pirfenidone treatment (i.e. the magnitude of the pirfenidone treatment effect is different at different levels of these variables).
Data from Study 1 and Study 2 were re-analyzed, selecting patients according to the following novel criteria instead of the original Intention To Treat (IIT) criteria:
(c) Time since IPF diagnosis >0.5 years and <48 months
Mean change in FVC in pirfenidone-treated vs. placebo-treated groups from Study 1 and Study 2, for the original patient population selected using the ITT criteria, is shown in FIG. 2A. When the patient population is instead selected using the novel criteria above, the mean change in FVC in pirfenidone-treated vs. placebo-treated groups for the patient is shown in FIG. 2B. Patients in both pirfenidone-treated and placebo-treated groups experienced a decline in mean % FVC from baseline. […]

The test system is the same in assay [2]. Description: Phase 3 study of Actimmune in 826 IPF patients, retrospective analysis of FVC progression. The format is in vivo, human. The following applies: Phase 3 study 2003-2007. The text has this:
FIGS. 1A-1D depicts a analysis of FVC progression from a clinical trial involving a different drug, interferon gamma-lb, which is inert with respect to effect on efficacy outcomes, in 826 patients with IPF, when the patients are segregated according to % FVC (FIG. 1A), % DLco (FIG. 1B), time since IPF diagnosis (FIG. 1C) and FEV1/FVC ratio (FIG. 1D).
In a prior trial involving 826 patients, data regarding progression of FVC was collected as part of a randomized, double-blind, placebo-controlled Phase 3 study conducted from 2003-2007 that was designed to evaluate the safety and efficacy of Actimmune(R) in IPF patients with mild to moderate impairment in lung function.

Setting [3] is: Study 1 and Study 2, novel criteria, week 72.
Setting [4] is: Study 1 and Study 2, original ITT criteria, week 48.
[5] abbreviates: Study 1 and Study 2, original ITT criteria, week 72.

For the molecule `Cc1ccc(=O)n(-c2ccccc2)c1` [pirfenidone, 5-methyl-1-phenyl-2-(1H)-pyridone], in assay [1] (Novel criteria, week 48), the “6MWT change from baseline, Relative Δ” value worked out at 64.2%; the “% DLco change from baseline, Relative Δ” value is 36.9%; the “% FVC ≧10% decline, Relative Δ” value was 60.4%; the “Progression-free survival, time to event HR” value was 0.31. In assay [1] (Novel criteria, week 48), the “SpO2 During 6MWT change from baseline, Relative Δ” value is listed as 62.3%; the “Survival, time to event HR” value came to 0.16; the “UCSD SOBQ (dyspnea) change from baseline, Relative Δ” value is given as −46.5%; the “Worsening IPF, time to event HR” value is 0.75. Besides, in assay [1] (Pooled ITT, week 48), the “6MWT change from baseline, Relative Δ” value is 41%; the “% DLco change from baseline, Relative Δ” value was found to be 16%; the “% FVC ≧10% decline, Relative Δ” value is listed as 39%; the “Progression-free survival, time to event HR” value amounted to 0.53. For the same molecule, in assay [1] (Pooled ITT, week 48), the “SpO2 During 6MWT change from baseline, Relative Δ” value was 21%; the “Survival, time to event HR” value stood at 0.42; the “UCSD SOBQ (dyspnea) change from baseline, Relative Δ” value is −29%; the “Worsening IPF, time to event HR” value was 0.80. In assay [1] (Study 1 and Study 2, novel criteria (% FVC 50%-90%, FEV1/FVC >0.80, time since diagnosis >0.5 years and <48 months), week 48), the “absolute difference in mean change from baseline % FVC between pirfenidone-treated and placebo-treated groups” value is 6.1%. Further, in assay [1] (Study 1 and Study 2, novel criteria, week 48), the “relative difference in mean change from baseline % FVC between pirfenidone-treated and placebo-treated groups” value was 63.3%. Moreover, in assay [1] (setting [3]), the “absolute difference in mean change from baseline % FVC between pirfenidone-treated and placebo-treated groups” value is listed as 7.9%; the “relative difference in mean change from baseline % FVC between pirfenidone-treated and placebo-treated groups” value turned out to be 57.0%. In addition, in assay [1] (setting [4]), the “absolute difference in mean change from baseline % FVC between pirfenidone-treated and placebo-treated groups” value stood at 3.3%; the “relative difference in mean change from baseline % FVC between pirfenidone-treated and placebo-treated groups” value worked out at 41.6%. For the same molecule, in assay [1] (setting [5]), the “absolute difference in mean change from baseline % FVC between pirfenidone-treated and placebo-treated groups” value is recorded as 2.5%; the “relative difference in mean change from baseline % FVC between pirfenidone-treated and placebo-treated groups” value is given as 22.8%. Besides, the “Interaction with Treatment: Group with Greater Pirfenidone Effect” value in assay [1] (variable % FVC (90%), P-value 0.096) is “FVC <90%”. Also, the “Interaction with Treatment: Group with Greater Pirfenidone Effect” value in assay [1] (variable Time since Diagnosis of IPF (0.5 yrs), P-value 0.043) is “Time >0.5 years”.

B1: Actimmune: a different drug, interferon gamma-lb, inert with respect to effect on efficacy outcomes in IPF (protein, UniProt P01579 24-161, looked up)
Interferon gamma: QDPYVKEAENLKKYFNAGHSDVADNGTLFLGILKNWKEESDRKIMQSQIVSFYFKLFKNFKDDQSIQKSVETIKEDMNVKFFNSNKKKRDDFEKLTNYSVTDLNVQRKAIHELIQVMAELSPAAKTGKRKRSQMLFRG
With B1, in assay [2], the “effect on FVC progression / efficacy outcomes” value is given as “does not have an effect on these outcomes”.
